# Results taken from patent publication US20210387996A1, “TRICYCLIC COMPOUNDS FOR THE TREATMENT AND PROPHYLAXIS OF HEPATITIS B VIRUS DISEASE” (priority 2018, published 2021).
# Tested on: HBeAg level in HepDES19 cells (surrogate marker for cccDNA)
# Test: Engineered HepDES19 primary screen assay (HBeAg as surrogate marker for cccDNA)
# Format: cell-based, HBV
# Settings: Hepatitis B virus, HepDES19, 120 h, read-out: IC50 (HBeAg level, HepDES19 primary screen assay)
# Source text: The assay was employed to screen for novel cccDNA inhibitors. HepDES19 is a cccDNA-producing cell line. In this cell line, HBeAg in the cell culture supernatant as surrogate marker, as HBeAg production depends on cccDNA level and activity. HepDES19 is an engineered cell line which contains a 1.1 unit length HBV genome, and pgRNA transcription from the transgene is controlled by Tetracycline (Tet). In the absence of Tet, pgRNA transcription will be induced, but HBV e antigen (HBeAg) could not be produced from this pgRNA due to very short leader sequence before the HBeAg start codon and the start codon is disrupted. Only after cccDNA is formed, the missing leader sequence and start codon mutation would be restored from the 3′-terminal redundancy of pgRNA, and then HBeAg could be synthesized. Therefore, HBeAg could be used as a surrogate marker for cccDNA (Zhou, T. et al., Antiviral Res. (2006), 72(2), 116-124; Guo, H. et al., J. Virol. (2007), 81(22), 12472-12484).
# HepDES19 cells were seeded at 2×10^6 cells per T150 flask and cultured with the culture medium (Dulbecco's Modified Eagle Medium: Nutrient Mixture F-12 [DMEM-F12, Gibco Cat. 11320-82], 10% Fetal Bovine Serum [FBS, Clontech Cat. 631101], 0.1 mM Non-Essential Amino Acids Solution [NEAA, Gibco Cat. 11140-050], 50 μg/mL Penicillin-Streptomycin [PS, Invitrogen Cat. 15140-163], 500 μg/mL Geneticin [G418, Invitrogen Cat. 10131-027]) containing 3 μg/mL Tet (Sigma, Cat. 87128) for 5 days. Cells were then seeded at 4×10^6 cells per T150 in the same culture medium as described above in the absence of Tet for 8 days. Cells were then harvested and frozen at density of 2×10^6 cells per mL. For compound testing, the frozen cells were thawed and seeded into 96-well plates at a density of 6×10^4 cells per well. At 24 hours after seeding, half log serial dilutions of compounds made with Dimethyl sulfoxide (DMSO, Sigma, Cat. D2650) were further diluted with the same culture medium as described above before they were added to the cells to reach desired final compound concentrations and 1% DMSO concentration. Plates were then incubated at 37° C. for another 5 days before measurement of HBeAg level and cell viability. Intracellular HBeAg level were measured with enzyme-linked immunosorbent assay (ELISA) kit (Shanghai Kehua Diagnostic Medical Products Co., Ltd). Cell viability was assessed using Cell Counting Kit-8 (Donjindo, Cat. CK04-20). IC50 values were derived from the dose-response curve using 4 parameter logistic curve fit method.
# The compounds of the present invention were tested for their capacity to inhibit extracellular HBeAg level as described herein.
row,SMILES,IC50
1,"O=c1c2c(oc3c(Cl)cccc13)CN(Cc1ccccc1)CC2 [Example 2, 2-benzyl-9-chloro-3,4-dihydro-1H-chromeno[2,3-c]pyridin-5(2H)-one]",49.8 µM
2,"O=C(Nc1ccccc1F)N1CCc2c(oc3c(Cl)cccc3c2=O)C1 [Example 7, 9-chloro-N-(2-fluorophenyl)-5-oxo-3,4-dihydro-1H-chromeno[2,3-c]pyridine-2(5H)-carboxamide]",39.8 µM
3,"O=C1c2oc3c(Cl)cccc3c(=O)c2CCN1c1cccc(OC(F)(F)F)c1 [Example 21, 9-chloro-2-(3-(trifluoromethoxy)phenyl)-3,4-dihydro-2H-chromeno[2,3-c]pyridine-1,5-dione]",47.5 µM
4,"COc1ccc(COc2cc(Cl)cnc2N2CCc3c(oc4c(Cl)cccc4c3=O)C2=O)cc1 [Example 45, 9-chloro-2-(5-chloro-3-((4-methoxybenzyl)oxy)pyridin-2-yl)-3,4-dihydro-2H-chromeno[2,3-c]pyridine-1,5-dione]",6.24 µM
5,"O=c1c2c(oc3c(Cl)cccc13)CN(c1ccc(Cl)cc1)CC2 [Example 42, 9-chloro-2-(4-chlorophenyl)-1,2,3,4-tetrahydro-5H-chromeno[2,3-c]pyridin-5-one]",4.26 µM
6,"COCc1cc(Cl)ccc1N1CCc2c(oc3c(Cl)cccc3c2=O)C1=O [Example 50, 9-chloro-2-(4-chloro-2-(methoxymethyl)phenyl)-3,4-dihydro-2H-chromeno[2,3-c]pyridine-1,5-dione]",26.4 µM
7,"COC(=O)c1ccc(N2CCc3c(oc4c(Cl)cccc4c3=O)C2)nc1 [Example 13, methyl 6-(9-chloro-5-oxo-3,4-dihydro-1H-chromeno[2,3-c]pyridin-2(5H)-yl)nicotinate]",41.6 µM
8,"Cc1ccc(C)c(N2CCc3c(oc4c(Cl)cccc4c3=O)C2=O)c1 [Example 31, 9-chloro-2-(2,5-dimethylphenyl)-3,4-dihydro-2H-chromeno[2,3-c]pyridine-1,5-dione]",7.13 µM
9,"O=C(c1nccc2ccccc12)N1CCc2c(oc3c(Cl)cccc3c2=O)C1 [Example 6, 9-chloro-2-(isoquinoline-1-carbonyl)-3,4-dihydro-1H-chromeno[2,3-c]pyridin-5(2H)-one]",21.6 µM
10,"O=C(O)C1CC(Oc2ccc(N3CCc4c(oc5c(Cl)cccc5c4=O)C3=O)cc2)C1 (stereo not shown) [Example 11, 3-(4-(9-chloro-1,5-dioxo-3,4-dihydro-1H-chromeno[2,3-c]pyridin-2(5H)-yl)phenoxy)cyclobutanecarboxylic Acid]",19 µM
11,"O=C1c2oc3c(Cl)cccc3c(=O)c2CCN1c1ccc(OC(F)(F)F)cc1Cl [Example 32, 9-chloro-2-(2-chloro-4-(trifluoromethoxy)phenyl)-3,4-dihydro-2H-chromeno[2,3-c]pyridine-1,5-dione]",10.8 µM
12,"N#Cc1ccc(N2CCc3c(oc4c(Cl)cccc4c3=O)C2=O)cc1 [Example 30, 4-(9-chloro-1,5-dioxo-1,3,4,5-tetrahydro-2H-chromeno[2,3-c]pyridin-2-yl)benzonitrile]",32.5 µM
13,"COc1ccc(CN2CCc3c(oc4c(Cl)cccc4c3=O)C2=O)cc1 [Example 5, 9-chloro-2-[(4-methoxyphenyl)methyl]-3,4-dihydrochromeno[2,3-c]pyridine-1,5-dione]",26 µM
14,"COC(=O)c1cccc(CN2CCc3c(oc4c(Cl)cccc4c3=O)C2)c1 [Example 3, methyl 3-((9-chloro-5-oxo-3,4-dihydro-1H-chromeno[2,3-c]pyridin-2(5H)-yl)methyl)benzoate]",30.7 µM
15,"COCOc1cc(Cl)ccc1N1CCc2c(oc3c(Cl)cccc3c2=O)C1=O [Example 46, 9-chloro-2-(4-chloro-2-(methoxymethoxy)phenyl)-3,4-dihydro-2H-chromeno[2,3-c]pyridine-1,5-dione]",9.84 µM
16,"O=C1c2oc3c(Cl)cccc3c(=O)c2CCN1c1ccc(Br)cc1 [Example 15, 2-(4-bromophenyl)-9-chloro-3,4-dihydro-2H-chromeno[2,3-c]pyridine-1,5-dione]",10.5 µM

row,SMILES,IC50
1,"O=C(c1ccccc1F)N1CCc2c(oc3c(Cl)cccc3c2=O)C1 [Example 4, 9-chloro-2-(2-fluorobenzoyl)-3,4-dihydro-1H-chromeno[2,3-c]pyridin-5-one]",23.4 µM
2,"COC(=O)c1cccc(N2CCc3c(oc4c(Cl)cccc4c3=O)C2=O)c1 [Example 8, methyl 3-(9-chloro-1,5-dioxo-3,4-dihydro-1H-chromeno[2,3-c]pyridin-2(5H)-yl)benzoate]",0.23 µM
3,"O=C1c2oc3c(Cl)cccc3c(=O)c2CCN1c1ccc(OC(F)(F)F)cc1 [Example 33, 9-chloro-2-(4-(trifluoromethoxy)phenyl)-3,4-dihydro-2H-chromeno[2,3-c]pyridine-1,5-dione]",1.84 µM
4,"Cc1cc(Cl)ccc1N1CCc2c(oc3c(Cl)cccc3c2=O)C1=O [Example 38, 9-chloro-2-(4-chloro-2-methylphenyl)-3,4-dihydro-2H-chromeno[2,3-c]pyridine-1,5-dione]",2.12 µM
5,"CCOc1cc(Cl)ccc1N1CCc2c(oc3c(Cl)cccc3c2=O)C1=O [Example 48, 9-chloro-2-(4-chloro-2-ethoxyphenyl)-3,4-dihydro-2H-chromeno[2,3-c]pyridine-1,5-dione]",6.9 µM
6,"COC(=O)c1ccc(N2CCc3c(oc4c(Cl)cccc4c3=O)C2=O)cc1 [Example 10, methyl 4-(9-chloro-1,5-dioxo-3,4-dihydro-1H-chromeno[2,3-c]pyridin-2(5H)-yl)benzoate]",7.78 µM
7,"N#Cc1cc(Cl)ccc1N1CCc2c(oc3c(Cl)cccc3c2=O)C1=O [Example 37, 5-chloro-2-(9-chloro-1,5-dioxo-1,3,4,5-tetrahydro-2H-chromeno[2,3-c]pyridin-2-yl)benzonitrile]",12.2 µM
8,"O=C(c1cc(Cl)ccc1N1CCc2c(oc3c(Cl)cccc3c2=O)C1=O)N1CCCC1 [Example 47, 9-chloro-2-(4-chloro-2-(pyrrolidine-1-carbonyl)phenyl)-3,4-dihydro-2H-chromeno[2,3-c]pyridine-1,5-dione]",3.29 µM
9,"O=c1c2c(oc3c(Cl)cccc13)CN(c1ccc(Cl)c(Cl)c1)CC2 [Example 49, 9-chloro-2-(3,4-dichlorophenyl)-1,2,3,4-tetrahydro-5H-chromeno[2,3-c]pyridin-5-one]",40.1 µM
10,"O=C1c2oc3c(Cl)cccc3c(=O)c2CCN1c1ncc(Cl)cc1C(F)(F)F [Example 43, 9-chloro-2-(5-chloro-3-(trifluoromethyl)pyridin-2-yl)-3,4-dihydro-2H-chromeno[2,3-c]pyridine-1,5-dione]",30.1 µM
11,"O=C1c2oc3c(Cl)cccc3c(=O)c2CCN1c1ccc(Cl)cc1Br [Example 44, 2-(2-bromo-4-chlorophenyl)-9-chloro-3,4-dihydro-2H-chromeno[2,3-c]pyridine-1,5-dione]",6.22 µM
12,"COc1ccc(N2Cc3c(oc4c(Cl)cccc4c3=O)C2=O)cc1 [Example 52, 5-chloro-2-(4-methoxyphenyl)-1H-chromeno[2,3-c]pyrrole-3,9-dione]",37.7 µM
13,"COC(=O)c1cc(Cl)ccc1N1CCc2c(oc3c(Cl)cccc3c2=O)C1=O [Example 36, methyl 5-chloro-2-(9-chloro-1,5-dioxo-1,3,4,5-tetrahydro-2H-chromeno[2,3-c]pyridin-2-yl)benzoate]",21.6 µM
14,"Cc1ccc(N2CCc3c(oc4c(Cl)cccc4c3=O)C2=O)cc1 [Example 34, 9-chloro-2-(p-tolyl)-3,4-dihydro-2H-chromeno[2,3-c]pyridine-1,5-dione]",6.01 µM
15,"COC(=O)c1cc(N2CCc3c(oc4c(Cl)cccc4c3=O)C2=O)ccc1Cl [Example 24, methyl 2-chloro-5-(9-chloro-1,5-dioxo-1,3,4,5-tetrahydro-2H-chromeno[2,3-c]pyridin-2-yl)benzoate]",46.1 µM
